Reference: paper doi:10.64898/2025.12.10.692519v1 (biorxiv, 2025)
Values belong to the compound of their own block, whether it stands above or below them.

Assays:
Assay in all cases: cells
HEP-2 = details: Homo sapiens, HEp-2, 144 h, read-out: Unesbulin (PTC-596)
NALM-6 = details: Homo sapiens, NALM-6, 144 h, read-out: Unesbulin (PTC-596)
HUT-78 = details: Homo sapiens, HuT78, 144 h, read-out: Unesbulin (PTC-596)
HL-60 = details: Homo sapiens, HL-60, 144 h, read-out: Unesbulin (PTC-596)
U-118 = details: 144 h, read-out: Unesbulin (PTC-596)
H-1299 = details: Homo sapiens, NCI-H1299, 144 h, read-out: Unesbulin (PTC-596)
SK-N-MC = details: Homo sapiens, SK-N-MC, 144 h, read-out: Unesbulin (PTC-596)
SW-872 = details: Homo sapiens, SW872, 144 h, read-out: Unesbulin (PTC-596)
PANC-1 = details: Homo sapiens, PANC-1, 144 h, read-out: Unesbulin (PTC-596)
WEHI-164 = details: Mus musculus, WEHI-164, 144 h, read-out: Unesbulin (PTC-596)
U2OS = details: Homo sapiens, U2OS, 144 h, read-out: Unesbulin (PTC-596)
U87-MG = details: Homo sapiens, U-87 MG, 144 h, read-out: Unesbulin (PTC-596)
HGC-27 = details: Homo sapiens, HGC-27, 144 h, read-out: Unesbulin (PTC-596)
HRT-18 = details: Homo sapiens, HRT-18, 144 h, read-out: Unesbulin (PTC-596)
DU-145 = details: Homo sapiens, DU-145, 144 h, read-out: Unesbulin (PTC-596)
CCRF-CEM = details: Homo sapiens, CCRF-CEM, 144 h, read-out: Unesbulin (PTC-596)
REC-1 = details: Homo sapiens, Rec1, 144 h, read-out: Unesbulin (PTC-596)
A4573 = details: A4573, 144 h, read-out: Unesbulin (PTC-596)
A-549 = details: Homo sapiens, A549, 144 h, read-out: Unesbulin (PTC-596)
Karpas-299 = details: Homo sapiens, KARPAS-299, 144 h, read-out: Unesbulin (PTC-596)
PLC-PRF5 = details: Homo sapiens, PLC-PRF-5, 144 h, read-out: Unesbulin (PTC-596)
CMK = test system: CMK; parameters: species or system CHRF; details: Homo sapiens, 72 h, read-out: Doxorubicin (IC50 nM)
MESSA = test system: MESSA; parameters: species or system MES-SA/Mx2; details: Homo sapiens, MES-SA, read-out: MES-SA
CHRF = test system: CHRF; parameters: species or system CMK; details: 72 h, read-out: Doxorubicin (IC50 nM)

- IC50 (HEP-2): 10 nM
- IC50 (NALM-6): 30 nM
- IC50 (HUT-78): 20 nM
- IC50 (HL-60): 48 nM
- IC50 (U-118): 33 nM
- IC50 (H-1299): 5 nM
- IC50 (SK-N-MC): 14 nM
- IC50 (SW-872): 18 nM
- IC50 (PANC-1): 21 nM
- IC50 (WEHI-164): 31 nM
- IC50 (U2OS): 12 nM
- IC50 (U87-MG): 11 nM
- IC50 (HGC-27): 9 nM
- IC50 (HRT-18): 11 nM
- IC50 (DU-145): 17 nM
- IC50 (CCRF-CEM): 27 nM
- IC50 (REC-1): 17 nM
- IC50 (A4573): 21 nM
- IC50 (A-549): 13 nM
- IC50 (Karpas-299): 34 nM
- IC50 (PLC-PRF5): 25 nM
SMILES: Cc1nc2ccc(F)cc2n1-c1nc(N)c(F)c(Nc2ccc(C(F)(F)F)cc2)n1 [Unesbulin]

SMILES: COc1cccc2c1C(=O)c1c(O)c3c(c(O)c1C2=O)C[C@@](O)(C(=O)CO)C[C@@H]3O[C@H]1C[C@H](N)[C@H](O)[C@H](C)O1 [doxorubicin]
- IC50 (CMK): 844 nM
- IC50 (MESSA): 71 ± 56 nM
- IC50 (CHRF): 681 nM
